# Measured values as given in patent publication US20130224110A1, “USE OF ADENOSINE RECEPTOR SIGNALING TO MODULATE PERMEABILITY OF BLOOD-BRAIN BARRIER” (CORNELL UNIVERSITY, priority 2010, published 2013).
# Columns and labels:
# blood brain barrier [1] = test: Fluorescently labeled dextran extravasation into rat brain (fluorimetry); assay type: in vivo; conditions: rats
# Experimental: (§1) The adenosine receptor agonists NECA, CCPA, CGS 21860, and SCH 58261 (Tocris, Ellisville, Mo.) were each dissolved in DMSO then diluted in PBS to the desired concentration; in most cases final DMSO concentrations were <0.5% (vol/vol). Lexiscan (Regadenoson; TRC, Inc., Toronto) was dissolved in PBS. For vehicle controls, DMSO was diluted in PBS to the same concentration. Dehydrated dextrans labeled with either FITC or Texas Red (Invitrogen, Carlsbad, Calif.) were re-suspended in PBS to 10 mg/ml. All experiments involving dextran injection used 1.0 mg dextran in PBS. In experiments where drug and dextran were injected concomitantly, 1.0 mg of dextran was mixed with the drug to the desired concentration in a final volume of 200 μl. In dose-response experiments, drugs and dextrans were injected concomitantly. All injections, except injections of SCH 58261, were retro-orbital i.v. with a 27-gauge needle. In the SCH 58261 experiment, SCH 58261 injections, 1 mg/kg, were intraperitoneal and mice were pre-dosed with this concentration daily for 4 days prior to the day of the experiment. An additional injection was administered at the time of the experiment. Vehicle/drug and dextrans were injected on day 5 and tissues were collected 3 h after vehicle/drug administration. In Lexiscan experiments, Lexiscan was administered i.v. with 3 injections, 5 min apart and tissues were collected at 15 min unless otherwise indicated.
# Ice-cold 50 mMTris-Cl (pH 7.6) was added to frozen brains (100 μl per 100 mg brain) and were to thawed on ice. They were homogenized with a dounce homogenizer and centrifuged at […] in a microfuge for 30 min at room temperature (rt). The supernatants were transferred to new tubes and an equal volume absolute methanol was added. The samples were centrifuged again at 16.1×g for 30 min at rt. Supernatant (200 μl) was transferred to a Corning costar 96 well black polystyrene assay plate (clear bottom). […] FITC-dextran was detected at 488/519 (excitation/emission) and Texas Red-dextran was detected at 592/618.
# Bend.3 cells [2] = test: Albumin uptake assay; assay type: cell-based, mouse; conditions: BECs, 1 μM, 30 minutes, vs media and vehicle
# Experimental: Bend.3 cells grown on collagen coated coverslips were incubated with albumin-alexafluor 594 (50 mg/ml) (Invitrogen) and either media alone, DMSO vehicle, NECA (1 μM), or Lexiscan (1 μM) for 30 minutes. Albumin uptake was visualized (albumin=red) utilizing the Zeiss Axio Imager M1 fluorescent microscope. Total albumin fluorescence was recorded using Zeiss Axio Vision software, and measured utilizing Image-J software.
# Bend.3 cells [3] = test: Transendothelial cell electrical resistance (TEER) assay; assay type: cell-based; conditions: mouse BEC monolayers, 1 μM, vs vehicle or media alone
# Experimental: Bend.3 cells were grown in ATCC-formulated DMEM supplemented with 10% FBS on 24-well transwell inserts, 8 μm pore size (BD Falcon, Bedford, Mass.) until a monolayer was established. TEER was assessed using a Voltohmeter (EVOMX, World Precision Instruments, Sarasota, Fla.). Background resistance from un-seeded transwells was subtracted from recorded values to determine absolute TEER values. Change in absolute TEER from T0 for each individual transwell was expressed as percentage change and then averaged for each treatment group.
# Bend.3 cells [4] = test: F-actin (phalloidin) staining of endothelial cells; assay type: cell-based, mouse; conditions: BECs, 1 μM, 3 or 30 min, vs vehicle
# Experimental: Bend.3 cells were grown (as described above) on circular cover slips in 24-well plates. Cells were treated for 3 or 30 min with 1 μM CCPA, 1 μM […], DMSO or media alone. Cover slips were washed with PBS, fixed in 4% paraformaldahyde, washed again in PBS and then permeabilized with 0.5% TritonX-100 in PBS. After washing in PBS/1% BSA, cover slips were blocked with 1% BSA then stained with Phallodin-Alexa 568. Cover slips were washed and mounted on slides with ProlongGold containing DAPI (Invitrogen). Images were obtained on an Olympus BX51 fluorescent microscope.
# blood brain barrier [5] = test: Fluorescently labeled dextran extravasation into mouse brain (fluorimetry); assay type: in vivo, mice
# Experimental: as §1
# In dose-response experiments and experiments with the A1 AR and A2A AR knock-out mice, drugs and dextrans were injected concomitantly. After 3 h, the mice were anesthetized with ketamine/xylazine and subjected to a nose cone containing isoflurane. They were perfused with 25-50 ml ice-cold PBS through the left ventricle of the heart then decapitated. Their brains were removed, weighed and frozen for later analysis.
# Ice-cold 50 mMTris-Cl (pH 7.6) was added to frozen brains (100 μl per 100 mg brain) and were to thawed on ice. They were homogenized with a dounce homogenizer and centrifuged at […] in a microfuge for 30 min at room temperature (rt). The supernatants were transferred to new tubes and an equal volume absolute methanol was added. The samples were centrifuged again at […] for 30 min at rt. Supernatant (200 μl) was transferred to a Corning costar 96 well black polystyrene assay plate (clear bottom). Additionally, a series of standards containing 0.001-10 pg/ml dextran in 50% Tris-Cl/50% absolute methanol (vol/vol) was added to each plate. Absolute concentrations of dextrans were derived from these standard curves. Fluorimetric analysis was performed on a BioTek (Winooski, Vt.) Synergy 4. FITC-dextran was detected at 488/519 (excitation/emission) and Texas Red-dextran was detected at 592/618.
# Bend.3 cells [6] = test: Tight junction molecule staining (ZO-1, Claudin-5, Occludin); assay type: cell-based, mouse; conditions: 1 μM, 1 h
# Experimental: Bend.3 cells grown on collagen coated coverslips were incubated with DMSO vehicle, NECA (1 μM), or Lexiscan (1 μM) for 1 h. Cells were washed with PBS, fixed with 4% paraformaldehyde, and permeabilized with 0.5% Triton-X in PBS. Cells were blocked with PBS/BSA/goat serum and then stained with antibodies (Invitrogen) against either ZO-1 (1A12), Claudin-5 (34-1600), or Occludin (3F10). Following a wash step, cells were incubated with either goat anti-rabbit IgTexas Red-X or goat anti-mouse IgCy5 (Invitrogen). Cover slips were washed and mounted on slides with ProlongGold containing DAPI. Images were obtained on a Zeiss Axio Imager M1 fluorescent microscope.
# [7] = mice, single i.v. injection (0.05 mg/kg)
structure (smiles),measurement,setting,value
CNC(=O)c1cnn(-c2nc(N)c3ncn([C@@H]4O[C@H](CO)[C@@H](O)[C@H]4O)c3n2)c1 [Lexiscan],labeled-dextran levels in brain,blood brain barrier [1]; 3 injections over 15 min,dramatically high levels of labeled-dextran
same,"increase in labeled-dextran, multiple doses compared to single injections",blood brain barrier [1]; 3 injections vs single injection,more than 20 fold
same,BBB permeability,blood brain barrier [1]; i.v. administration,increased BBB permeability in rats
same,rate of fluorescently-labeled albumin uptake,Bend.3 cells [2],did not affect the rate of fluorescently-labeled albumin uptake
same,TEER,Bend.3 cells [3],decreases in TEER
same,actinomyosin stress fiber formation,Bend.3 cells [4],marked induction of actinomycin stress fibers
same,magnitude of increased BBB permeability compared with NECA,blood brain barrier [5]; i.v. administration,much greater than the magnitude of increased permeability after NECA administration
same,"BBB permeability to 10,000 Da dextrans","blood brain barrier [5]; mice, i.v. administration","increase BBB permeability to 10,000 Da dextrans"
same,time by which BBB permeability returned to baseline,blood brain barrier [5]; [7],≤ 180 min
same,time of maximum increased BBB permeability,blood brain barrier [5]; [7],30 min
same,time after which FITC-dextran was detectable in the brain,"blood brain barrier [5]; mice, single injection",5 min
same,ZO-1 and claudin-5 expression,Bend.3 cells [6],discreet alterations in ZO-1 and claudin-5
same,occludin expression,Bend.3 cells [6],severely diminished occludin expression
